According to US20160159774A1 (Celgene Avilomics Research, Inc., priority 2014, published 2016):

What was measured:
activated BTK enzyme = target: T1, activated BTK enzyme (Homo sapiens, UniProt Q06187); assay: Omnia assay for potency assessment against BTK; type: biochemical; conditions: BTK inhibition assay; [BTK]=5 nM, [ATP]=40 μM, [Y5-Sox]=10 μM
T1 construct: purchased Life Technologies PV3363
Source text: Omnia Assay Protocol for Potency Assessment Against BTK
The protocol below describes an assay to measure potency of compounds against the activated BTK enzyme. The mechanics of the assay platform are best described by the vendor (Life Technologies, Carlsbad, Calif.) on their website at the following URLs: www.lifetechnologies.com/us/en/home/life-science/drug-discovery/target-and-lead-identification-and-validation/kinasebiology/kinase-activity-assays/omnia-kinase-assays/omnia-kinase-principle.html and tools.lifetechnologies.com/content/sfs/manuals/omnia_kinase_assay_man.pdf
Briefly, 10× stocks of BTK (PV3363) from Life Technologies, 1.13×ATP (AS00lA) and Sox conjugated peptide substrates, Y5-Sox, (KZN305l) were prepared in 1× kinase reaction buffer consisting of 20 mM Tris, pH 7.5, 5 mM MgCl2, 1 mM EGTA, 5 mM (3-glycerophosphate, 5% glycerol (10× stock, KB002A) and 0.2 mM DTT (DS00lA). 5 μL of each enzyme were pre-incubated in a Corning (#3574) 384-well, white, non-binding surface microtiter plate (Corning, N.Y.) for 30 min. at room temperature with a 0.5 μL volume of 50% DMSO or serially diluted compounds prepared in 50% DMSO. Kinase reactions were started with the addition of […] of the ATP/Tyr-Sox peptide substrate Y5 mix and monitored every 71 seconds for 60 minutes at λex360/λem485 in a Synergy4 plate reader from BioTek (Winooski, Vt.). At the conclusion of each assay, progress curves from each well were examined for linear reaction kinetics and fit statistics (R2, 95% confidence interval, absolute sum of squares). Initial velocity (0 minutes to ˜30 minutes) from each reaction was determined from the slope of a plot of relative fluorescence units vs time (minutes) and then plotted against inhibitor concentration to estimate IC50 from log [Inhibitor] vs Response, Variable Slope model in GraphPad Prism from GraphPad Software (San Diego, Calif.).
Reagent conditions for the assay are:
[BTK]=5 nM, [ATP]=40 μM, [Y5-Sox]=10 μM (ATP KMapp˜36 μM).
The compound numbers correspond to the compound numbers in the examples.

[1] = target: T2, BTK in Ramos human Burkitt lymphoma cells (Homo sapiens, UniProt Q06187); assay: BTK Ramos cellular assay (BTK occupancy); type: cell-based; conditions: concentration producing 50% occupancy of BTK, 1 hour incubation with compound
T2 construct: Compounds of this invention were assayed in Ramos human Burkitt lymphoma cells; endogenous in cells; host or cells: Ramos human Burkitt lymphoma cells
Procedure: BTK activity in Ramos cells, in the presence of a compound of the invention, can be measured by 3 different methods: 1) inhibition of autophosphorylation of BTK; 2) inhibition of phosphorylation of the immediate BTK surrogate PLCγ2; and 3) BTK occupancy. […] In this instance, BTK occupancy was chosen and is described below.
Compounds of this invention were assayed in Ramos human Burkitt lymphoma cells. Ramos cells were grown in suspension in T175 flasks, spun down, resuspended to a concentration of 2×10^6 cells per mL in serum-free media and incubated for 1 hour. Compound was added to Ramos cells to a final concentration of 500, 166.7, 55.6, 18.5, 6.2, 2.1, and 0.7 nM. Ramos cells were incubated with compound for 1 hour, washed with PBS and lysed in 1004 of BioRad lysis Buffer. Cell lysates were incubated with a biotinylated covalent probe (compound 1-215 disclosed in U.S. published application number 2010/0029610, incorporated by reference in its entirety) at a final concentration of 1 μM in a PBS, 0.05% Tween-20, 1% BSA solution for 1 h at room temperature. Standards and samples were transferred to a streptavidin-coated 96-well ELISA plate and mixed while shaking for 1 h at room temperature. The α-Btk antibody (BD 611116, 1:1000 dilution in PBS+0.05% Tween-20+0.5% BSA) was then added and incubated for 1 h at room temperature. After wash, goat α-mouse-HRP (1:5000 dilution in PBS+0.05% Tween-20+0.5% BSA) was added and incubated for 1 h at room temperature. The ELISA was developed with addition of tetramethyl benzidine (TMB) followed by Stop Solution and read at OD 450 nm. The standard curve (11.7-3000 pg/μL) was generated with human full-length recombinant Btk protein and plotted using a 4 parameter curve fit in Gen5 software. Uninhibited Btk detected from samples was normalized to μg total protein as determined by BCA protein analysis (Pierce Cat. 23225).
The results of this assay show the concentration of compound producing 50% occupancy of BTK. This level of occupancy empirically translates to a level of 50% inhibition of BTK activity (both as measured by autophosphorylation and by phosphorylation of PLCγ2). […] The compound numbers correspond to the compound numbers in the examples.

T2 sequence (Q06187 whole entry): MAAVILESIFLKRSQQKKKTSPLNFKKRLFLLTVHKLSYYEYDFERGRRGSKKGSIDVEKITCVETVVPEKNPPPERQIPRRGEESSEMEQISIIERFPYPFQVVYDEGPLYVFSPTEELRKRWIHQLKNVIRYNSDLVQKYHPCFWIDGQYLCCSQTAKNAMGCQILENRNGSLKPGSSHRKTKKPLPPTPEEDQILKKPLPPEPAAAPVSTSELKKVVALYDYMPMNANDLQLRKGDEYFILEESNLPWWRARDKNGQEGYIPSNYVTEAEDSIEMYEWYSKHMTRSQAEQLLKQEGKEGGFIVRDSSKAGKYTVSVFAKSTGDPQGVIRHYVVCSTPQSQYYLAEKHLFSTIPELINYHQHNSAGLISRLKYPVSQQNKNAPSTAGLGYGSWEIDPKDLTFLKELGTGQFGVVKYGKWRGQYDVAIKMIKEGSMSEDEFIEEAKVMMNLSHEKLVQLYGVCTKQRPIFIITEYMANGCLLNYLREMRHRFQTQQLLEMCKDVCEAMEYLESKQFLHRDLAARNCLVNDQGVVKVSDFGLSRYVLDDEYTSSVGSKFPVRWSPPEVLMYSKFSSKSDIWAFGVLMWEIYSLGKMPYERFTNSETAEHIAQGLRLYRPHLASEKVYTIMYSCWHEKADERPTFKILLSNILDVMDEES
T1 sequence (Q06187 whole entry): as above

Structure (SMILES)	IC50 (activated BTK enzyme) [nM]	EC50 [1] [nM]
C=CC(=O)N1CCC[C@@H](Nc2nc(Nc3ccc4c(c3)CN(CC(F)(F)F)C4)ncc2F)C1 [Compound I-22, (R)-1-(3-((5-fluoro-2-((2-(2,2,2-trifluoroethyl)isoindolin-5-yl)amino)pyrimidin-4-yl)amino)piperidin-1-yl)prop-2-en-1-one]	< 10	10 to 100
C=CC(=O)N1CCC[C@@H](Nc2nc(Nc3ccc4c(c3)CN(CCO)C4)ncc2F)C1 [Compound I-23, (R)-1-(3-((5-fluoro-2-((2-(2-hydroxyethyl)isoindolin-5-yl)amino)pyrimidin-4-yl)amino)piperidin-1-yl)prop-2-en-1-one]	< 10	< 10
C=CC(=O)N1CCC[C@@H](Nc2nc(Nc3ccc4c(c3)CN(c3ccc(F)cc3)C4)ncc2F)C1 [Compound I-24, (R)-1-(3-((5-fluoro-2-((2-(4-fluorophenyl)isoindolin-5-yl)amino)pyrimidin-4-yl)amino)piperidin-1-yl)prop-2-en-1-one]	< 10	101 to 1000
C=CC(=O)N1CCC[C@@H](Nc2nc(Nc3ccc4c(c3)CN(C(C)(C)C)C4)ncc2F)C1 [Compound I-25, (R)-1-(3-((2-((2-(tert-butyl)isoindolin-5-yl)amino)-5-fluoropyrimidin-4-yl)amino)piperidin-1-yl)prop-2-en-1-one]	< 10	< 10
C=CC(=O)N1CC2(CC(Nc3nc(Nc4ccc5c(c4)CN(C)C5)ncc3F)C2)C1 [Compound I-26, 1-(6-((5-Fluoro-2-((2-methylisoindolin-5-yl)amino)pyrimidin-4-yl)amino)-2-azaspiro[3.3]heptan-2-yl)prop-2-en-1-one]	< 10	< 10
C=CC(=O)N1CCC[C@@H](Nc2nc(Nc3ccc4c(c3)CCNC4)ncc2F)C1 [Compound I-27, (R)-1-(3-((5-fluoro-2-((1,2,3,4-tetrahydroisoquinolin-6-yl)amino)pyrimidin-4-yl)amino)piperidin-1-yl)prop-2-en-1-one]	< 10	10 to 100
C=CC(=O)N1CCC[C@@H](Nc2nc(Nc3ccc4c(c3)CCN(C)C4)ncc2F)C1 [Compound I-28, (R)-1-(3-((5-Fluoro-2-((2-methyl-1,2,3,4-tetrahydroisoquinolin-6-yl)amino)-pyrimidin-4-yl)amino)piperidin-1-yl)prop-2-en-1-one]	< 10	10 to 100
C=CC(=O)N1CCC[C@@H](Nc2nc(Nc3ccc4c(c3)CCN(C(C)C)C4)ncc2F)C1 [Compound I-29, (R)-1-(3-((5-Fluoro-2-((2-isopropyl-1,2,3,4-tetrahydroisoquinolin-6-yl)amino)-pyrimidin-4-yl)amino)piperidin-1-yl)prop-2-en-1-one]	< 10	10 to 100
C=CC(=O)N1CCC[C@@H](Nc2nc(Nc3ccc4c(c3)CCN(C(C)=O)C4)ncc2F)C1 [Compound I-30, (R)-1-(3-((2-((2-Acetyl-1,2,3,4-tetrahydroisoquinolin-6-yl)amino)-5-fluoro-pyrimidin-4-yl)amino)piperidin-1-yl)prop-2-en-1-one]	< 10	10 to 100
C=CC(=O)N1CCC[C@@H](Nc2nc(Nc3ccc4c(c3)CCN(C3COC3)C4)ncc2F)C1 [Compound I-31, (R)-1-(3-(5-Fluoro-2-(2-(oxetan-3-yl)-1,2,3,4-tetrahydroisoquinolin-6-ylamino)-pyrimidin-4-ylamino)piperidin-1-yl)prop-2-en-1-one]	< 10	< 10
C=CC(=O)N1CCC[C@@H](Nc2nc(Nc3ccc4c(c3)CCN(CC3COC3)C4)ncc2F)C1 [Compound I-32, (R)-1-(3-(5-Fluoro-2-(2-(oxetan-3-ylmethyl)-1,2,3,4-tetrahydroisoquinolin-6-ylamino)pyrimidin-4-ylamino)piperidin-1-yl)prop-2-en-1-one]	< 10	< 10
C=CC(=O)N1CCC[C@@H](Nc2nc(Nc3ccc4c(c3)CNCC4)ncc2F)C1 [Compound I-33, (R)-1-(3-(5-fluoro-2-(1,2,3,4-tetrahydroisoquinolin-7-ylamino)pyrimidin-4-ylamino)-piperidin-1-yl)prop-2-en-1-one]	< 10	< 10
C=CC(=O)N1CCC[C@@H](Nc2nc(Nc3ccc4c(c3)CN(C)CC4)ncc2F)C1 [Compound I-34, (R)-1-(3-((5-Fluoro-2-((2-methyl-1,2,3,4-tetrahydroisoquinolin-7-yl)amino)-pyrimidin-4-yl)amino)piperidin-1-yl)prop-2-en-1-one]	< 10	< 10
C=CC(=O)N1CCC[C@@H](Nc2nc(Nc3ccc4c(c3)CN(C3COC3)CC4)ncc2F)C1 [Compound I-35, (R)-1-(3-(5-Fluoro-2-(2-(oxetan-3-yl)-1,2,3,4-tetrahydroisoquinolin-7-ylamino)-pyrimidin-4-ylamino)piperidin-1-yl)prop-2-en-1-one]	< 10	< 10
C=CC(=O)N1CCC[C@@H](Nc2nc(Nc3ccc4c(c3)CN(CC3COC3)CC4)ncc2F)C1 [Compound I-36, (R)-1-(3-(5-Fluoro-2-(2-(oxetan-3-ylmethyl)-1,2,3,4-tetrahydroisoquinolin-7-ylamino)pyrimidin-4-ylamino)piperidin-1-yl)prop-2-en-1-one]	< 10	< 10
C=CC(=O)N1CCC[C@@H](Nc2nc(Nc3cc(F)c4c(c3)CN(C)C4)ncc2F)C1 [Compound I-37, (R)-1-(3-(5-Fluoro-2-(7-fluoro-2-methylisoindolin-5-ylamino)pyrimidin-4-ylamino)piperidin-1-yl)prop-2-en-1-one]	< 10	101 to 1000
C=CC(=O)N1CCC[C@@H](Nc2nc(Nc3ccc4c(c3)CCCN(C)C4)ncc2F)C1 [Compound I-38, (R)-1-(3-((5-Fluoro-2-((2-methyl-2,3,4,5-tetrahydro-1H-benzo[c]azepin-7-yl)amino)pyrimidin-4-yl)amino)piperidin-1-yl)prop-2-en-1-one]	< 10	< 10
C=CC(=O)N1CCC[C@@H](Nc2nc(Nc3ccc4c(c3)CN(CCF)C4)ncc2F)C1 [Compound I-39, (R)-1-(3-((5-Fluoro-2-((2-(2-fluoroethyl)isoindolin-5-yl)amino)pyrimidin-4-yl)amino)piperidin-1-yl)prop-2-en-1-one]	< 10	10 to 100
C=CC(=O)N1CCC[C@@H](Nc2nc(Nc3ccc4c(c3)CN(C3(C)CCOCC3)C4)ncc2F)C1 [Compound I-40, (R)-1-(3-(5-Fluoro-2-(2-(4-methyltetrahydro-2H-pyran-4-yl)isoindolin-5-ylamino)pyrimidin-4-ylamino)piperidin-1-yl)prop-2-en-1-one]	< 10	< 10
C=CC(=O)N1CCC[C@@H](Nc2nc(Nc3ccc4c(c3)C(C)(C)N(C)C4(C)C)ncc2F)C1 [Compound I-41, (R)-1-(3-(5-Fluoro-2-(1,1,2,3,3-pentamethylisoindolin-5-ylamino)pyrimidin-4-ylamino)piperidin-1-yl)prop-2-en-1-one]	< 10	10 to 100
